Laboratory results published in the CheMixHub viscosity set.
± gives the uncertainty stated by the source.

Assay: xn = mol fraction of the nth substance listed

Q: What does the source list for CCCCCO + Cc1ccccc1?
A: viscosity (293.15 K, 101.33 kPa, x1 = 0.0767): 0.623 ± 0.008 mPa·s; viscosity (293.15 K, 101.33 kPa, x1 = 0.155): 0.678 ± 0.009 mPa·s; viscosity (293.15 K, 101.33 kPa, x1 = 0.2336): 0.747 ± 0.01 mPa·s; viscosity (293.15 K, 101.33 kPa, x1 = 0.3074): 0.834 ± 0.011 mPa·s; viscosity (293.15 K, 101.33 kPa, x1 = 0.3459): 0.888 ± 0.011 mPa·s; viscosity (293.15 K, 101.33 kPa, x1 = 0.4529): 1.094 ± 0.014 mPa·s; viscosity (293.15 K, 101.33 kPa, x1 = 0.5308): 1.29 ± 0.016 mPa·s; viscosity (293.15 K, 101.33 kPa, x1 = 0.601): 1.512 ± 0.018 mPa·s; viscosity (293.15 K, 101.33 kPa, x1 = 0.6728): 1.795 ± 0.021 mPa·s; viscosity (293.15 K, 101.33 kPa, x1 = 0.7788): 2.338 ± 0.027 mPa·s; viscosity (293.15 K, 101.33 kPa, x1 = 0.8616): 2.883 ± 0.033 mPa·s; viscosity (293.15 K, 101.33 kPa, x1 = 0.8898): 3.096 ± 0.035 mPa·s; viscosity (303.15 K, 101 kPa, x1 = 0.0999): 0.564 ± 0.02 mPa·s; viscosity (303.15 K, 101 kPa, x1 = 0.1999): 0.6272 ± 0.022 mPa·s; viscosity (303.15 K, 101 kPa, x1 = 0.3): 0.7213 ± 0.025 mPa·s; viscosity (303.15 K, 101 kPa, x1 = 0.4): 0.8366 ± 0.028 mPa·s; viscosity (303.15 K, 101 kPa, x1 = 0.4999): 0.9954 ± 0.033 mPa·s; viscosity (303.15 K, 101 kPa, x1 = 0.6001): 1.221 ± 0.039 mPa·s; viscosity (303.15 K, 101 kPa, x1 = 0.6999): 1.475 ± 0.047 mPa·s; viscosity (303.15 K, 101 kPa, x1 = 0.8001): 1.822 ± 0.057 mPa·s; viscosity (303.15 K, 101 kPa, x1 = 0.9001): 2.289 ± 0.071 mPa·s; viscosity (303.15 K, 101.33 kPa, x2 = 0.0745): 2.508 ± 0.044 mPa·s; viscosity (303.15 K, 101.33 kPa, x2 = 0.2114): 1.81 ± 0.032 mPa·s; viscosity (303.15 K, 101.33 kPa, x2 = 0.4291): 1.101 ± 0.019 mPa·s; viscosity (303.15 K, 101.33 kPa, x2 = 0.5202): 0.925 ± 0.016 mPa·s; viscosity (303.15 K, 101.33 kPa, x2 = 0.609): 0.787 ± 0.014 mPa·s; viscosity (303.15 K, 101.33 kPa, x2 = 0.7058): 0.678 ± 0.012 mPa·s; viscosity (303.15 K, 101.33 kPa, x2 = 0.8063): 0.592 ± 0.011 mPa·s; viscosity (303.15 K, 101.33 kPa, x2 = 0.8629): 0.564 ± 0.01 mPa·s; viscosity (303.15 K, 101.33 kPa, x2 = 0.9443): 0.536 ± 0.01 mPa·s; viscosity (308.15 K, 101 kPa, x1 = 0.0999): 0.5329 ± 0.019 mPa·s; viscosity (308.15 K, 101 kPa, x1 = 0.1999): 0.5883 ± 0.021 mPa·s; viscosity (308.15 K, 101 kPa, x1 = 0.3): 0.6717 ± 0.023 mPa·s; viscosity (308.15 K, 101 kPa, x1 = 0.4): 0.7723 ± 0.026 mPa·s; viscosity (308.15 K, 101 kPa, x1 = 0.4999): 0.9102 ± 0.03 mPa·s; viscosity (308.15 K, 101 kPa, x1 = 0.6001): 1.106 ± 0.036 mPa·s; viscosity (308.15 K, 101 kPa, x1 = 0.6999): 1.324 ± 0.042 mPa·s; viscosity (308.15 K, 101 kPa, x1 = 0.8001): 1.617 ± 0.051 mPa·s; viscosity (308.15 K, 101 kPa, x1 = 0.9001): 2.077 ± 0.065 mPa·s; viscosity (308.15 K, 101.33 kPa, x2 = 0.0745): 2.202 ± 0.039 mPa·s; viscosity (308.15 K, 101.33 kPa, x2 = 0.2114): 1.611 ± 0.028 mPa·s; viscosity (308.15 K, 101.33 kPa, x2 = 0.4291): 1.001 ± 0.018 mPa·s; viscosity (308.15 K, 101.33 kPa, x2 = 0.5202): 0.846 ± 0.015 mPa·s; viscosity (308.15 K, 101.33 kPa, x2 = 0.609): 0.726 ± 0.013 mPa·s; viscosity (308.15 K, 101.33 kPa, x2 = 0.7058): 0.63 ± 0.012 mPa·s; viscosity (308.15 K, 101.33 kPa, x2 = 0.8063): 0.554 ± 0.01 mPa·s; viscosity (308.15 K, 101.33 kPa, x2 = 0.8629): 0.53 ± 0.01 mPa·s; viscosity (308.15 K, 101.33 kPa, x2 = 0.9443): 0.507 ± 0.007 mPa·s; viscosity (313.15 K, 101 kPa, x1 = 0.0999): 0.4988 ± 0.018 mPa·s; viscosity (313.15 K, 101 kPa, x1 = 0.1999): 0.5518 ± 0.02 mPa·s; viscosity (313.15 K, 101 kPa, x1 = 0.3): 0.6271 ± 0.022 mPa·s; viscosity (313.15 K, 101 kPa, x1 = 0.4): 0.7149 ± 0.025 mPa·s; viscosity (313.15 K, 101 kPa, x1 = 0.4999): 0.8351 ± 0.028 mPa·s; viscosity (313.15 K, 101 kPa, x1 = 0.6001): 1.004 ± 0.033 mPa·s; viscosity (313.15 K, 101 kPa, x1 = 0.6999): 1.192 ± 0.038 mPa·s; viscosity (313.15 K, 101 kPa, x1 = 0.8001): 1.442 ± 0.046 mPa·s; viscosity (313.15 K, 101 kPa, x1 = 0.9001): 1.838 ± 0.058 mPa·s; viscosity (313.15 K, 101.33 kPa, x2 = 0.0745): 1.94 ± 0.035 mPa·s; viscosity (313.15 K, 101.33 kPa, x2 = 0.2114): 1.439 ± 0.026 mPa·s; viscosity (313.15 K, 101.33 kPa, x2 = 0.4291): 0.911 ± 0.016 mPa·s; viscosity (313.15 K, 101.33 kPa, x2 = 0.5202): 0.778 ± 0.014 mPa·s; viscosity (313.15 K, 101.33 kPa, x2 = 0.609): 0.67 ± 0.012 mPa·s; viscosity (313.15 K, 101.33 kPa, x2 = 0.7058): 0.587 ± 0.011 mPa·s; viscosity (313.15 K, 101.33 kPa, x2 = 0.8063): 0.52 ± 0.01 mPa·s; viscosity (313.15 K, 101.33 kPa, x2 = 0.8629): 0.5 ± 0.007 mPa·s; viscosity (313.15 K, 101.33 kPa, x2 = 0.9443): 0.484 ± 0.007 mPa·s; viscosity (318.15 K, 101 kPa, x1 = 0.0999): 0.4725 ± 0.017 mPa·s; viscosity (318.15 K, 101 kPa, x1 = 0.1999): 0.5195 ± 0.019 mPa·s; viscosity (318.15 K, 101 kPa, x1 = 0.3): 0.5876 ± 0.021 mPa·s; viscosity (318.15 K, 101 kPa, x1 = 0.4): 0.6645 ± 0.023 mPa·s; viscosity (318.15 K, 101 kPa, x1 = 0.4999): 0.7703 ± 0.026 mPa·s; viscosity (318.15 K, 101 kPa, x1 = 0.6001): 0.9178 ± 0.03 mPa·s; viscosity (318.15 K, 101 kPa, x1 = 0.6999): 1.08 ± 0.035 mPa·s; viscosity (318.15 K, 101 kPa, x1 = 0.8001): 1.296 ± 0.042 mPa·s; viscosity (318.15 K, 101 kPa, x1 = 0.9001): 1.63 ± 0.052 mPa·s; viscosity (323.15 K, 101 kPa, x1 = 0.0999): 0.4511 ± 0.017 mPa·s; viscosity (323.15 K, 101 kPa, x1 = 0.1999): 0.4907 ± 0.018 mPa·s; viscosity (323.15 K, 101 kPa, x1 = 0.3): 0.5523 ± 0.02 mPa·s; viscosity (323.15 K, 101 kPa, x1 = 0.4): 0.6202 ± 0.022 mPa·s; viscosity (323.15 K, 101 kPa, x1 = 0.4999): 0.7139 ± 0.025 mPa·s; viscosity (323.15 K, 101 kPa, x1 = 0.6001): 0.8422 ± 0.028 mPa·s; viscosity (323.15 K, 101 kPa, x1 = 0.6999): 0.982 ± 0.032 mPa·s; viscosity (323.15 K, 101 kPa, x1 = 0.8001): 1.169 ± 0.038 mPa·s; viscosity (323.15 K, 101 kPa, x1 = 0.9001): 1.459 ± 0.047 mPa·s
